Assay results: patent publication US12351582B2, “Aurora kinase inhibitors and uses thereof” (WIGEN BIOMEDICINE TECHNOLOGY (SHANGHAI) CO., LTD., priority 2019, dated 2025)
Each block holds one molecule with its values, some of them ahead of it.

How the values were obtained:
Aurora-B = Aurora-B (Homo sapiens, UniProt Q96GD4); assay: Aurora kinase activity assay (Caliper mobility shift), Aurora B; assay type: biochemical; details: recombinant Aurora kinase, FAM labeled peptide substrate
Experimental: (§1) The Caliper mobility shift assay was used to measure compound activity towards aurora kinase. 10 different concentrations of compounds were prepared by three-fold serial dilutions. Recombinant Aurora kinases in kinase buffer (20 mM HEPES, pH 7.5, 0.01% Triton X-100) were incubated with compounds for 10 minutes at room temperature. FAM labeled peptide substrates were subsequently added to initiate the reaction at 25° C. Conversion rates were measured by caliper after the reactions were terminated. […] Data were normalized to that of the vehicle control, and percentage of inhibition and IC50 were calculated.

Aurora-A = biological target: T1, Aurora-A (Homo sapiens, UniProt O14965); assay: Aurora kinase activity assay (Caliper mobility shift), Aurora A; assay type: biochemical; details: for IC50: recombinant Aurora kinase, FAM labeled peptide substrate
T1 sequence (O14965 1-403): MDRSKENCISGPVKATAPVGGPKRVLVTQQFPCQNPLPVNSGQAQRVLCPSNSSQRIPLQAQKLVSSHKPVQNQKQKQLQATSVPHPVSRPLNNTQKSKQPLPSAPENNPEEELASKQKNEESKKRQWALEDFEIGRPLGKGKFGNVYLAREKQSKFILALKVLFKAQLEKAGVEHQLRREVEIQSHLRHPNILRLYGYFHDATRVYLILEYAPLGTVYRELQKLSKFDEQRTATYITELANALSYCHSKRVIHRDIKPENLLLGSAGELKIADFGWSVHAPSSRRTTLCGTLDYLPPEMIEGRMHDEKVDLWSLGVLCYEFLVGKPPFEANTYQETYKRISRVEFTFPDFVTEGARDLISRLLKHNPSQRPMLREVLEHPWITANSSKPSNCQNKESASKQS
Experimental: as §1

H1975 cells = assay: H1975 proliferation assay; assay type: cell-based; details: Homo sapiens, NCI-H1975; 72 hours incubation, cell survival through ATP quantification
Experimental: Cells were allowed to attach overnight and compounds were added to the cells for a further incubation of 72 hours. […] of CTL was added afterwards to measure cell survival through ATP quantification.

H69 xenograft = assay: In vivo anti-tumor growth in H69 mouse xenografts; design: species or system nude mouse; details: for RTV (relative tumor volume, Vt/V0) / T/C / TGI (%) / Body weight (g) D1 / Tumor volume (mm^3) D1 / Body weight (g) D21 / Tumor volume (mm^3) D21: H69 xenograft, bid*21, oral; for Body weight (g) D1 / Tumor volume (mm^3) D1: D1 first day of treatment; for Body weight (g) D21 / Tumor volume (mm^3) D21: D21 last day of treatment
Experimental: (§2) Cells were passaged and harvested by trypsinization. 1×10^7 H69 cells were implanted in the left armpit of nude mouse. […] Tumor volume and body weight were measured every other day. Mice were sacrificed on day 21 of treatment. Relative tumor volume (RTV) and tumor growth (T/C), and tumor growth inhibition (TGI) were calculated and analyzed statistically.

H1975 xenograft = assay: In vivo anti-tumor growth in H1975 mouse xenografts; design: species or system nude mice
Experimental: as §2, with “8×10^6” for “1×10^7 H69”, “mice.” for “mouse.”, “monitored” for “measured”, “analyzed.” for “analyzed statistically.”

[1] = Dosage 60, qd*21, oral gavage, D1 first day of treatment
[2] = Dosage 60, qd*21, oral gavage, D21 last day of treatment

Aurora-B, sequence (Q96GD4 whole entry): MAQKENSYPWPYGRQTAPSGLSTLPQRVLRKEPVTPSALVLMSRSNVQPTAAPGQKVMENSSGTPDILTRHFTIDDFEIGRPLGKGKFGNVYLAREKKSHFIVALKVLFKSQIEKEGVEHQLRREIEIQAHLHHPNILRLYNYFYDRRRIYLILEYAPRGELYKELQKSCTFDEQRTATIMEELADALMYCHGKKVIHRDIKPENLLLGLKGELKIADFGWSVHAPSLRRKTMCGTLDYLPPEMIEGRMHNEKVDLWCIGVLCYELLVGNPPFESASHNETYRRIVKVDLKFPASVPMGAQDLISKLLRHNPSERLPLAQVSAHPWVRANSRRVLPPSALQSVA

SMILES: CC1CC(Cc2nc(Nc3nccs3)ccc2F)(C(=O)O)CCN1Cc1cccc(Cl)c1F (racemic) [Compound 1, 1-(3-chloro-2-fluorobenzyl)-4-((3-fluoro-6-(thiazol-2-ylamino)pyridin-2-yl)methyl)-2-methylpiperidine-4-carboxylic acid]
IC50 (Aurora-B): 20 nM
IC50 (Aurora-A): 0.64 nM
IC50 (H1975 cells): 22 nM

SMILES: C[C@@H]1C[C@](Cc2nc(Nc3nccs3)ccc2F)(C(=O)O)CCN1Cc1cccc(Cl)c1F [Compound 1-1, (2R,4R)-1-(3-chloro-2-fluorobenzyl)-4-((3-fluoro-6-(thiazol-2-ylamino)pyridin-2-yl)methyl)-2-methylpiperidine-4-carboxylic acid]
H69 tumor growth in words (comment on Table 4) (H69 xenograft; 2.5, 5 and 10 mg/kg twice daily, compared to LY-3295668): blocks H69 tumor growth in a dose dependent manner with markedly improved efficacy compared to LY-3295668
RTV (relative tumor volume, Vt/V0) (H69 xenograft; 2.5 mg/kg): 0.65
T/C (H69 xenograft; 2.5 mg/kg): 20%
TGI (%) (H69 xenograft; 2.5 mg/kg): 111.16%
Body weight (g) D1 (H69 xenograft; 2.5 mg/kg): 15.99 g
Tumor volume (mm^3) D1 (H69 xenograft; 2.5 mg/kg): 287.46 mm^3
Body weight (g) D21 (H69 xenograft; 2.5 mg/kg): 16.73 g
Tumor volume (mm^3) D21 (H69 xenograft; 2.5 mg/kg): 180.58 mm^3
RTV (relative tumor volume, Vt/V0) (H69 xenograft; 5 mg/kg): 0.33
T/C (H69 xenograft; 5 mg/kg): 10%
TGI (%) (H69 xenograft; 5 mg/kg): 120.31%
Body weight (g) D1 (H69 xenograft; 5 mg/kg): 15.91 g
Tumor volume (mm^3) D1 (H69 xenograft; 5 mg/kg): 284.84 mm^3
Body weight (g) D21 (H69 xenograft; 5 mg/kg): 16.01 g
Tumor volume (mm^3) D21 (H69 xenograft; 5 mg/kg): 90.43 mm^3
RTV (relative tumor volume, Vt/V0) (H69 xenograft; 10 mg/kg): 0.37
T/C (H69 xenograft; 10 mg/kg): 11%
TGI (%) (H69 xenograft; 10 mg/kg): 120.34%
Body weight (g) D1 (H69 xenograft; 10 mg/kg): 16.16 g
Tumor volume (mm^3) D1 (H69 xenograft; 10 mg/kg): 287.92 mm^3
Body weight (g) D21 (H69 xenograft; 10 mg/kg): 16.19 g
Tumor volume (mm^3) D21 (H69 xenograft; 10 mg/kg): 93.16 mm^3
IC50 (Aurora-B): 16 nM
IC50 (Aurora-A): 0.4 nM
potency in words (comment on Table 2) (Aurora-A; towards Aurora-A, Aurora-B and H1975): more potent than its racemic mixture
IC50 (H1975 cells): 12 nM

SMILES: CC1CC(Cc2nc(Nc3nccs3)ccc2F)(C(=O)O)CCN1Cc1ccnc(Cl)c1F (stereo not shown) [Compound 3, 1-((2-chloro-3-fluoropyridin-4-yl)methyl)-4-((3-fluoro-6-(thiazol-2-ylamino)pyridin-2-yl)methyl)-2-methylpiperidine-4-carboxylic acid]
IC50 (Aurora-B): 321 nM
IC50 (Aurora-A): 0.73 nM
IC50 (H1975 cells): 195 nM

SMILES: CC1CC(Cc2nc(Nc3nccs3)ccc2F)(C(=O)O)CCN1Cc1cccc2c1OC(F)(F)O2 (stereo not shown) [Compound 7, 1-((2,2-difluorobenzo[d][1,3]dioxol-4-yl)methyl)-4-((3-fluoro-6-(thiazol-2-ylamino)pyridin-2-yl)methyl)-2-methylpiperidine-4-carboxylic acid]
IC50 (Aurora-B): 822 nM
IC50 (Aurora-A): 1.1 nM
IC50 (H1975 cells): 99 nM

Further lines, with some results ahead:

IC50 (Aurora-B): 126 nM
IC50 (Aurora-A): 0.98 nM
SMILES: CC1CC(Cc2nc(Nc3nccs3)ccc2F)(C(=O)O)CCN1C(C)c1cccc(Cl)c1F (stereo not shown) [Compound 9, 1-(1-(3-chloro-2-fluorophenyl)ethyl)-4-((3-fluoro-6-(thiazol-2-ylamino)pyridin-2-yl)methyl)-2-methylpiperidine-4-carboxylic acid]
IC50 (H1975 cells): 81 nM

IC50 (Aurora-B): 15 nM
IC50 (Aurora-A): 0.74 nM
SMILES: [2H]C([2H])(c1cccc(Cl)c1F)N1CCC(Cc2nc(Nc3nccs3)ccc2F)(C(=O)O)CC1C (stereo not shown) [Compound 13, 1-((3-chloro-2-fluorophenyl)methyl-d2)-4-((3-fluoro-6-(thiazol-2-ylamino)pyridin-2-yl)methyl)-2-methylpiperidine-4-carboxylic acid]
RTV (relative tumor volume, Vt/V0) (H1975 xenograft; Dosage 60, qd*21, oral gavage): 4.72
TGI (%) (H1975 xenograft; Dosage 60, qd*21, oral gavage): 81.07%
Body weight (g) D1 (H1975 xenograft; [1]): 17.82 g
Tumor volume (mm^3) D1 (H1975 xenograft; [1]): 82.50 mm^3
Body weight (g) D21 (H1975 xenograft; [2]): 19.00 g
Tumor volume (mm^3) D21 (H1975 xenograft; [2]): 373.74 mm^3
T/C (H1975 xenograft; Dosage 60, qd*21, oral gavage, TRTV/CRTV × 100): 24.11%
activity in vivo in words (comment on Table 3) (H1975 xenograft; compared with LY-3295668): shows greater activity in vivo
IC50 (H1975 cells): 25 nM

IC50 (Aurora-B): 435 nM
IC50 (Aurora-A): 1.42 nM
SMILES: CC1(C)CC(Cc2nc(Nc3nccs3)ccc2F)(C(=O)O)CCN1Cc1cccc(Cl)c1F (stereo not shown) [Compound 20, 1-(3-chloro-2-fluorobenzyl)-4-((3-fluoro-6-(thiazol-2-ylamino)pyridin-2-yl)methyl)-2,2-dimethylpiperidine-4-carboxylic acid]
IC50 (H1975 cells): 156 nM

IC50 (Aurora-B): 1140 nM
IC50 (Aurora-A): 1.21 nM
SMILES: Cc1cc(Nc2ccc(F)c(CC3(C(=O)O)CCN(C(=O)c4cccc(Cl)c4F)C(C)C3)n2)n[nH]1 (stereo not shown) [Compound 22, 1-(3-chloro-2-fluorobenzoyl)-4-((3-fluoro-6-((5-methyl-1H-pyrazol-3-yl)amino)pyridin-2-yl)methyl)-2-methylpiperidine-4-carboxylic acid]
IC50 (H1975 cells): 155 nM
